One data set has as its system Escherichia coli. Kind of data set: in vivo protection of infected mice. As to conditions: subcutaneous route × two doses. The protocol: (§1) Methods: The method employed in this characterization is as follows: Female white Swiss mice, average weight 20-23 grams, were infected intraperitoneally with 3-20 times the number of organisms calculated to be lethal for 50% of the infected control animals (3-20 LD50 doses). At the time of infection and again 6 hours later, therapy was given by the designated route. Controls of the virulence of the culture and the toxicity of the antibiotic for uninfected mice were included in the tests. Seven days after infection the test was considered complete and the amount of the antibiotic (I) that would be required to protect 50% of the infected and treated animals was calculated by the method of Knudsen and Curtis: J. Amer. Stat. Assoc. Vol. 42: page 282 (1947).
(§2) The method employed in these studies is the same as described above with regard to the in vivo characterization of 810A. The results of these tests are described below in Table XIb:
(§3) Administration was by subcutaneous injection. At the completion of the test period, usually 7 days after administration, the amount of product required to protect 50% of the mice (ED50) from this otherwise fatal injection was calculated: […]

A further data set deals with Proteus mirabilis. Kind of data set: in vivo protection of infected mice. To be noted: subcutaneous route × two doses. How it is done:
as §1, §2, §3

In another data set the test system is Klebsiella pneumoniae B. Kind of data set: in vivo protection of infected mice. As to conditions: subcutaneous route × two doses. How it is done:
as §1, §2, §3

The subject of data set [1] is Salmonella schottmuelleri. Kind of data set: in vivo protection of infected mice. As to conditions: subcutaneous route × two doses. The protocol: as §1, §2, §3
The next data set concerns Aerobacter aerogenes. The data set is described as follows: in vivo protection of infected mice. As to conditions: subcutaneous route × two doses. The protocol: as §1, §2, §3
Another data set relates to Proteus morganii 3202. Kind of data set: in vivo protection of infected mice. As to conditions: subcutaneous route × two doses. The protocol:
as §1, §2, §3

The test system of a further data set is Paracolobactrum arizonae. The data set is described as follows: in vivo protection of infected mice. As to conditions: subcutaneous route × two doses. How it is done:
as §1, §2, §3

The subject of the next data set is Pasteurella multocida. Kind of data set: in vivo protection of infected mice. To be noted: subcutaneous route × two doses. The protocol: as §1, §2, §3
The test system of the next data set is Salmonella typhosa. The data set is described as follows: in vivo protection of infected mice. As to conditions: subcutaneous route × two doses. How it is done:
as §1, §2, §3

In data set [2] the test system is Diplococcus pneumoniae 2400. Kind of data set: in vivo protection of infected mice. To be noted: subcutaneous route × two doses. How it is done: as §1, §2, §3
The subject of a further data set is Proteus vulgaris. The data set is described as follows: in vivo protection of infected mice. As to conditions: subcutaneous route × two doses. How it is done:
as §1, §2, §3

The next data set has as its system Klebsiella pneumoniae AD. The data set is described as follows: in vivo protection of infected mice. To be noted: subcutaneous route × two doses. The protocol:
as §1, §2, §3

Data set [3] has as its system Vibrio percolans (MB-1272). Kind of data set: disc-plate assay using Vibrio percolans. As to conditions: Example 9 broth after 4 days; 0.5 inch discs.
A further data set concerns Salmonella. The data set is described as follows: activity against Salmonella (in words). The format is cell-based.
In data set [4] the test system is Alcaligenes faecalis (MB-9). Kind of data set: bacterial inactivation by washed cells.
The nature of data set [5]: blood appearance and urinary excretion. Format: in vivo. As to conditions: within four hours after administration; 240 min.
Data set [6] has as its system gram-negative and gram-positive organisms. The data set is described as follows: in vivo activity against infections (in words). Set-up: species or system mice. As to conditions: for oral protection against infections: given orally; for in vivo gram-negative potency compared with cephalothin: in general. The protocol: as §1
The method employed in these studies is the same as described above with regard to the in vivo characterization of 810A.

The subject of data set [7] is Alcaligenes faecalis (MB-9). As to conditions: 4 h.
Data set [8] can be described thus: isoelectric point and pH stability. Format: physicochemical.
Data set [9] concerns Alcaligenes viscosus (MB-12). To be noted: 4 h.
The test system of a further data set is Proteus mirabilis 241. Kind of data set: bacterial inactivation. To be noted: bacterial cells, 4 h. The protocol:
(§4) These cultures are: Escherichia coli 236, Proteus morganii 251, Proteus morganii 356 and Proteus mirabilis 241. […] In conducting the assay, individual mixtures of the organisms and one of the antibiotics were sampled after 4 hours incubation and assayed for residual antibiotic activity. The procedure is the same assay method as described above against Alcaligenes faecalis MB-9 and A. viscosus MB-12.

A further data set deals with Proteus morganii 251. Kind of data set: bacterial inactivation. As to conditions: bacterial cells, 4 h. The protocol:
as §4

The next data set concerns Escherichia coli 236. The data set is described as follows: bacterial inactivation. To be noted: bacterial cells, 4 h. How it is done:
as §4

For data set [10], the system named is Proteus morganii 356. The data set is described as follows: bacterial inactivation. As to conditions: bacterial cells, 4 h. The protocol: as §4
A further data set deals with cephalosporinases. The data set is described as follows: resistance to cephalosporinases / enzymatic degradation. The format is biochemical.
In data set [11] the test system is Proteus morganii 356. The data set is described as follows: mouse protection test, clinical isolate. The format is in vivo, mice. As to conditions: subcutaneous route × 2 doses (average of two trials). The protocol: as §1
Administration was by subcutaneous injection. At the completion of the test period, usually 7 days after administration, the amount of product required to protect 50% of the mice (ED50) from this otherwise fatal injection was calculated:
In addition to the aforementioned in vivo trials of the product, a clinical isolate of Proteus morganii 356 which is resistant to cephalosporins and capable of degrading cephalosporin C, was employed in a mouse protection test performed in the same manner as reported above.

Data set [12] has as its system gram-negative and gram-positive bacteria. The data set is described as follows: antibacterial activity (in words). Format: cell-based.
Data set [13] has as its system Proteus vulgaris (MB-838). The data set is described as follows: disc-plate assay using Proteus vulgaris. Format: cell-based. As to conditions: read-out: concentration giving a 25 mm. zone.

Entries after “also recorded” stand apart in the source; their conditions may differ.

For `CO[C@@]1(NC(=O)CCC[C@@H](N)C(=O)O)C(=O)N2C(C(=O)O)=C(COC(N)=O)CS[C@@H]21` [Antibiotic 842A], the ED50 in the data set with Escherichia coli stood at 200 µg; with Proteus mirabilis it was 276 µg; in the data set with Klebsiella pneumoniae B, 125 µg; in data set [1], 103 µg; in the data set on Aerobacter aerogenes, 49 µg; in the data set on Proteus morganii 3202 it was 276 µg. The ED50 in the data set on Paracolobactrum arizonae was found to be 125 µg; in the data set with Pasteurella multocida it was 57 µg; in the data set with Salmonella typhosa it was 34 µg; in [2], 566 µg; with Proteus vulgaris it was 51 µg; with Klebsiella pneumoniae AD, 125 µg. This compound also returned an ED50 in the data set with Proteus morganii 356 [11] of 273 µg. Besides, the inhibition zone in data set [3] is 33 mm. Moreover, the “activity against Salmonella species” value in the data set on Salmonella is “exhibits activity against Salmonella schottmuelleri 3010, S. gallinarum and S. typhosa”. Further, the “resistance to inactivation compared with cephalosporin C” value in data set [4] (A. faecalis, A. viscosus, E. coli 236, P. morganii 251 and 236 (so in the source), P. mirabilis 241) is given as “more resistant than cephalosporin C”. The “stability to bacterial inactivation” value in data set [4] (compared with cephalosporin C, cephaloridine and cephalothin, certain microorganisms) is recorded as “more stable than the latter against certain microorganisms”. The “eliminated in the urine” value in data set [5] is given as “approximately 80%”. Besides, the “oral protection against infections” value in [6] was “protects against infections due to Paracolobactrum arizonae 3270, Proteus vulgaris 1810, and Salmonella schottmuelleri 3010”. Besides, the “in vivo gram-negative potency compared with cephalothin” value in data set [6] was “greater than cephalothin”; in data set [6] (listed as 842A) it was “generally increased gram-negative effect and an increased potency when compared to cephalothin”. Further, the “in vivo activity / protection against infections” value in data set [6] (mouse, in vivo) is “effectiveness in vivo on Proteus morganii and an effectiveness against the following gram-negative bacteria: Escherichia coli, Proteus vulgaris, Proteus mirabilis, Proteus morganii, Salmonella schottmuelleri, Klebsiella pneumoniae AD, Klebsiella pneumoniae B, and Paracolobactrum arizonae; also recorded: protects against infection with three species of Proteus, two of Salmonella, one strain of Escherichia coli, two of Klebsiella and also against Paracolobactrum arizonae, Aerobacter aerogenes, Pasteurella multocida and Diplococcus pneumoniae 2400”. For the same compound, the “protection from gram-negative infection compared with known antibiotics” value in data set [6] (subcutaneously to mice) is “generally more active than cephalothin; also recorded: approximately equal to cephaloridine, ampicillin and chloromycetin”. Moreover, the “Percent Inactivation After Incubation With Washed Bacterial Cells” value in data set [7] was 0%; in data set [9], 54.4%. Further, the stability entry in data set [8] (above pH 7) is given as “unstable”; in data set [8] (above pH 9.0), “unstable”; in [8] (pH 1.5), “relatively stable”; in data set [8] (pH 1.5, listed as 842A), “stable”. Also, the percent inactivation is listed as 5% in the data set with Proteus mirabilis 241, 80% in the data set on Proteus morganii 251, 38% in the data set with Escherichia coli 236 and 69% in the data set on Proteus morganii 356 [10]. In addition, in the data set on cephalosporinases, the resistance to cephalosporinases entry is listed as “a greater resistance to cephalosporinases”. Further, the “resistance to enzymatic degradation compared with cephalosporin C” value with cephalosporinases was “more resistant to enzymatic degradation than cephalosporin C”. Also, the “antibacterial effect (in words)” value in [12] is given as “enhanced activity against gram-negative microorganisms”. In [12], the bactericidal action result was “bactericidal”. Further, the development of resistance result in [12] was “resistance to it develops slowly”. The “growth inhibition of gram-negative bacteria” value in [12] (in vitro) is “inhibits the growth of the following gram-negative bacteria: Escherichia coli, Proteus vulgaris, Alcaligenes faecalis, Brucella bronchiseptica, Salmonella gallinarum, Vibrio percolans and Xanthomonas vesicatoria”. Moreover, in data set [12] (in vitro), the “growth inhibition of gram-positive bacteria” value is “inhibits the growth of the following gram-positive bacteria: Staphylococcus aureus, Sarcina lutea and Bacillus subtilis”.
Consider `COC(=Cc1ccc(OS(=O)(=O)O)cc1)C(=O)OCC1=C(C(=O)O)N2C(=O)[C@](NC(=O)CCC[C@@H](N)C(=O)O)(OC)[C@H]2SC1` [Ic, 7β-(D-5-amino-5-carboxyvaleramido)-3-(α-methoxy-p-sulfooxycinnamoyloxymethyl)-7-methoxy-3-cephem-4-carboxylic acid], for which the effectiveness against infections entry in [6] (administered intraperitoneally) is “effective against a variety of gram-negative and gram-positive infections”. Also, the “oral protection against infections” value in [6] is reported as “protects against infections due to Proteus vulgaris”. Further, the IC (25 mm zone) in data set [13] is 88 µg/mL. For the same compound, the “resistance to enzymatic degradation compared with cephalosporin C” value with cephalosporinases is recorded as “more resistant to enzymatic degradation than cephalosporin C”.
